What was measured:
[1] = target: T1, KRas G12C (Homo sapiens, UniProt P01116, G12C); assay: KRas binding assay, TR-FRET displacement of Cy5 labelled tracer; conditions: 60-minute incubation at room temperature, 1% DMSO, pH 7.5
T1 construct: Biotinylated KRas (corresponding to amino acids 1-169, produced at Accelegan Inc.); biotin (biotinylated); purchased Accelegan Inc
In short: (§1)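 KRas aa 1-169, biotinylated; Tb-streptavidin donor; 1% DMSO final. Buffer: HEPES 50 mM (pH 7.5), MgCl2 5 mM, DTT 1 mM, Tween-20 0.005%. 60 min, RT. IC50 from 4-parameter fit of POC.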

[2] = target: T2, KRas G12S (Homo sapiens, UniProt P01116, G12S); assay: as above; conditions: 60-minute incubation at room temperature, 1% DMSO, pH 7.5
T2 construct: Biotinylated KRas (corresponding to amino acids 1-169, produced at Accelegan Inc.); biotin (biotinylated); purchased Accelegan Inc
T2 sequence (P01116 1-169 isoform P01116-2 G12S): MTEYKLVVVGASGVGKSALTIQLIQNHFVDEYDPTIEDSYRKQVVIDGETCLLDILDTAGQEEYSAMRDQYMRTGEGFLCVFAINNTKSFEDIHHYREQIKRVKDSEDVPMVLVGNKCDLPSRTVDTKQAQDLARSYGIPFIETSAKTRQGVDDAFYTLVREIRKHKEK
In short: as §1

[3] = target: T3, KRas WT (Homo sapiens, UniProt P01116); assay: as above; conditions: 60-minute incubation at room temperature, 1% DMSO, pH 7.5
T3 construct: Biotinylated KRas (corresponding to amino acids 1-169, produced at Accelegan Inc.); biotin (biotinylated); purchased Accelegan Inc
T3 sequence (P01116 1-169 isoform P01116-2): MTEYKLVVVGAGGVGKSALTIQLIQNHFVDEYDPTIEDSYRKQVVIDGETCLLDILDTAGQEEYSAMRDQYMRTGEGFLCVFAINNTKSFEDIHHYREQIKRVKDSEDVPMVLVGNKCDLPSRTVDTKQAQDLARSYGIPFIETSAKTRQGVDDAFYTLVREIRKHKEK
In short: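 TR-FRET tracer-displacement readout after 60 min at room temperature, using KRas residues 1-169 (biotinylated) with terbium streptavidin and a Cy5 tracer. Buffer: 50 mM HEPES pH 7.5, 5 mM MgCl2, 0.005% Tween-20, 1 mM DTT, 1% DMSO final. IC50 from 4-parameter fit of POC data.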

[4] = target: T4, KRas-mediated phosphorylation of ERK in MKN1 cells (Homo sapiens, UniProt P01116); assay: Inhibition of KRas-mediated phosphorylation of ERK (HTRF), MKN1 cells; assay type: cell-based; conditions: MKN1 cells (KRas WT); HTRF pERK; 3 h incubation
T4 construct: pERK HTRF read-out
T4 sequence (P01116 1-188 isoform P01116-2): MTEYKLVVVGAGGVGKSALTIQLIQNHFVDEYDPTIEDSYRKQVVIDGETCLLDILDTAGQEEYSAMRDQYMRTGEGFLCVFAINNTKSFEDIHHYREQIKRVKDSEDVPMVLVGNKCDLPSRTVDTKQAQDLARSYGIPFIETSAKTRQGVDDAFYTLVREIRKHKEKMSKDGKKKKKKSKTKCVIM
Description: Inhibition of KRas Phosphorylation of ERK (HTRF) by Exemplary Compounds of Formula (Ia) or (Ib)
Cisbio HTRF Advanced pERK Assay Catalog #64AERPEH • Cells: MKN1, PSN1 • Procedure: • 1. Day 1: Seed 6,000 cells/well −25 μl/well in 384-well white solid bottom plate; RPM1_10% FBS. Incubate overnight at 37 °C/5% CO2. • 2.

[5] = target: T5, KRas-mediated phosphorylation of ERK in A549 cells (Homo sapiens, UniProt P01116, G12S); assay: Inhibition of KRas-mediated phosphorylation of ERK (HTRF), A549 cells; assay type: cell-based; conditions: HTRF pERK, 3 h incubation
T5 construct: pERK HTRF read-out
T5 sequence (P01116 1-188 isoform P01116-2 G12S): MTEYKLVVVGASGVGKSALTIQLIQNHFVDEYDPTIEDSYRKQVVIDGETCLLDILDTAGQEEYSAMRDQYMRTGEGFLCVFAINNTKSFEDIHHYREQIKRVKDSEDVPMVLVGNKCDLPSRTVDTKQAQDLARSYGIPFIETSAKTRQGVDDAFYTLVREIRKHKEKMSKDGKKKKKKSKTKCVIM

[6] = target: T6, KRas-mediated phosphorylation of ERK in H358 cells (Homo sapiens, UniProt P01116, G12C); assay: Inhibition of KRas-mediated phosphorylation of ERK (HTRF), H358 cells; assay type: cell-based; conditions: HTRF pERK, 3 h incubation
T6 construct: pERK HTRF read-out
T6 sequence (P01116 1-188 isoform P01116-2 G12C): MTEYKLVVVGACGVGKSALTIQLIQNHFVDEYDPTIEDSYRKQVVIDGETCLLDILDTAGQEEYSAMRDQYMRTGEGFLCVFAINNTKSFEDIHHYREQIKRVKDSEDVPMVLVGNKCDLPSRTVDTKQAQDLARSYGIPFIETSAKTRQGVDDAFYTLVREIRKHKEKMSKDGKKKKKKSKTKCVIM

T1 sequence (P01116 1-169 isoform P01116-2 G12C): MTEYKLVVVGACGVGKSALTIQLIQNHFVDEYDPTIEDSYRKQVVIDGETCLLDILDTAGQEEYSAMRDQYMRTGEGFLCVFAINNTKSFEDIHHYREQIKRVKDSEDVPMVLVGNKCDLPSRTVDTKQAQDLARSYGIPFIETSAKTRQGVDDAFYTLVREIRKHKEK

Row | SMILES | IC50 [1] | IC50 [2] | IC50 [3] | IC50 [4] | IC50 [5] | IC50 [6]
1 | N#Cc1c(N)sc2c(F)ccc(-c3c(Cl)cc4c(N5CCCC(C(=O)n6cccn6)CC5)nc(OC[C@@]56CCCN5C[C@H](F)C6)nc4c3F)c12 (stereo partly drawn) [Example 131, 4-(4-(4-(1H-pyrazole-1-carbonyl)azepan-1-yl)-6-chloro-8-fluoro-2-(((2R,7aS)-2-fluorotetrahydro-1H-pyrrolizin-7a(5H)-yl)methoxy)quinazolin-7-yl)-2-amino-7-fluorobenzo[b]thiophene-3-carbonitrile] | 7 nM | 6 nM | 7 nM | 258 nM | 5 nM | 9 nM
2 | N#Cc1c(N)sc2c(F)ccc(-c3c(Cl)cc4c(N5CCC(C(=O)n6cccn6)CC5)nc(OC[C@@]56CCCN5C[C@H](F)C6)nc4c3F)c12 [Example 129, 4-(4-(4-(1H-pyrazole-1-carbonyl)piperidin-1-yl)-6-chloro-8-fluoro-2-(((2R,7aS)-2-fluorotetrahydro-1H-pyrrolizin-7a(5H)-yl)methoxy)quinazolin-7-yl)-2-amino-7-fluorobenzo[b]thiophene-3-carbonitrile] | 7 nM | 5 nM | 8 nM | 139 nM | 4 nM | 26 nM
3 | CON(C)C(=O)C1CCN(c2nc(OC[C@@]34CCCN3C[C@H](F)C4)nc3c(F)c(-c4ccc(F)c5sc(N)c(C#N)c45)c(Cl)cc23)CC1 [Example 242, 1-(7-(2-amino-3-cyano-7-fluorobenzo[b]thiophen-4-yl)-6-chloro-8-fluoro-2-(((2R,7aS)-2-fluorotetrahydro-1H-pyrrolizin-7a(5H)-yl)methoxy)quinazolin-4-yl)-N-methoxy-N-methylpiperidine-4-carboxamide] | 14 nM | 12 nM | 8 nM | 17 nM | 240 nM | 149 nM
4 | CCc1c(F)ccc2cc(O)cc(-c3ncc4c(N5CCC(C(=O)N(C)C(=O)C(C)(C)C)CC5)nc(OC[C@@]56CCCN5C[C@H](F)C6)nc4c3F)c12 [Example 224, 1-(7-(8-ethyl-7-fluoro-3-hydroxynaphthalen-1-yl)-8-fluoro-2-(((2R,7aS)-2-fluorotetrahydro-1H-pyrrolizin-7a(5H)-yl)methoxy)pyrido[4,3-d]pyrimidin-4-yl)-N-methyl-N-pivaloylpiperidine-4-carboxamide] | 526 nM | 257 nM | 177 nM | 321 nM | 3770 nM | 1330 nM
5 | CCc1c(F)ccc2cc(O)cc(-c3ncc4c(N5CCC(C(=O)Oc6ccccc6)CC5)nc(OC[C@@]56CCCN5C[C@H](F)C6)nc4c3F)c12 [Example 39, phenyl 1-(7-(8-ethyl-7-fluoro-3-hydroxynaphthalen-1-yl)-8-fluoro-2-(((2R,7aS)-2-fluorotetrahydro-1H-pyrrolizin-7a(5H)-yl)methoxy)pyrido[4,3-d]pyrimidin-4-yl)piperidine-4-carboxylate] | 13 nM | 1590 nM | 195 nM | 1360 nM | 6550 nM | 808 nM
6 | COc1ccccc1OC(=O)C1CCN(c2nc(OC[C@@]34CCCN3C[C@H](F)C4)nc3c(F)c(-c4ccc(F)c5sc(N)c(C#N)c45)c(Cl)cc23)CC1 [Example 300, 2-methoxyphenyl 1-(7-(2-amino-3-cyano-7-fluorobenzo[b]thiophen-4-yl)-6-chloro-8-fluoro-2-(((2R,7aS)-2-fluorotetrahydro-1H-pyrrolizin-7a(5H)-yl)methoxy)quinazolin-4-yl)piperidine-4-carboxylate] | 9 nM | 85 nM | 163 nM | 408 nM | 115 nM | 9 nM
7 | CCc1c(F)ccc2cc(O)cc(-c3ncc4c(N(C)CCN(C)C(=O)n5ccnn5)nc(OC[C@@]56CCCN5C[C@H](F)C6)nc4c3F)c12 (single isomer, unassigned) [Example 208] | 4 nM | 74 nM | 171 nM | 854 nM | 3980 nM | 4 nM
8 | CCc1c(F)ccc2cc(O)cc(-c3ncc4c(N5CCC(C(=O)N(C)S(C)(=O)=O)CC5)nc(OC[C@@]56CCCN5C[C@H](F)C6)nc4c3F)c12 [Example 257, 1-(7-(8-ethyl-7-fluoro-3-hydroxynaphthalen-1-yl)-8-fluoro-2-(((2R,7aS)-2-fluorotetrahydro-1H-pyrrolizin-7a(5H)-yl)methoxy)pyrido[4,3-d]pyrimidin-4-yl)-N-methyl-N-(methylsulfonyl)piperidine-4-carboxamide] | 5 nM | 499 nM | 214 nM | 726 nM | 677 nM | 21 nM
9 | COC(=O)C1CCN(c2nc(OC[C@@]34CCCN3C[C@H](F)C4)nc3c(F)c(-c4ccc(F)c5sc(N)c(C#N)c45)c(Cl)cc23)CC1 [Example 286, Methyl 1-(7-(2-amino-3-cyano-7-fluorobenzo[b]thiophen-4-yl)-6-chloro-8-fluoro-2-(((2R,7aS)-2-fluorotetrahydro-1H-pyrrolizin-7a(5H)-yl)methoxy)quinazolin-4-yl)piperidine-4-carboxylate] | 11 nM | 15 nM | 6 nM | 24 nM | 237 nM | 106 nM
10 | Cc1ccn(C(=O)C2CCCN(c3nc(OC[C@@]45CCCN4C[C@H](F)C5)nc4c(F)c(-c5c(I)ccc(N)c5C#N)c(Cl)cc34)CC2)n1 (stereo partly drawn) [Example 263, 6-amino-2-(6-chloro-8-fluoro-2-(((2R,7aS)-2-fluorotetrahydro-1H-pyrrolizin-7a(5H)-yl)methoxy)-4-(4-(3-methyl-1H-pyrazole-1-carbonyl)azepan-1-yl)quinazolin-7-yl)-3-iodobenzonitrile] | 1720 nM | 490 nM | 2130 nM | 8920 nM | 495 nM | > 10000 nM
11 | N#Cc1c(N)sc2c(F)ccc(-c3c(Cl)cc4c(N5CCN(C(=O)n6ccnc6)CC5)nc(OC[C@@]56CCCN5C[C@H](F)C6)nc4c3F)c12 [Example 231, 4-(4-(4-(1H-imidazole-1-carbonyl)piperazin-1-yl)-6-chloro-8-fluoro-2-(((2R,7aS)-2-fluorotetrahydro-1H-pyrrolizin-7a(5H)-yl)methoxy)quinazolin-7-yl)-2-amino-7-fluorobenzo[b]thiophene-3-carbonitrile] | 5 nM | 17 nM | 13 nM | 25 nM | 444 nM | 4 nM
12 | CCc1c(F)ccc2cc(O)cc(-c3ncc4c(N5CCCCC(C(=O)n6ccc(C)n6)CC5)nc(OC[C@@]56CCCN5C[C@H](F)C6)nc4c3F)c12 (stereo partly drawn) [Example 53, (1-(7-(8-ethyl-7-fluoro-3-hydroxynaphthalen-1-yl)-8-fluoro-2-(((2R,7aS)-2-fluorotetrahydro-1H-pyrrolizin-7a(5H)-yl)methoxy)pyrido[4,3-d]pyrimidin-4-yl)azocan-4-yl)(3-methyl-1H-pyrazol-1-yl)methanone] | 7 nM | 2 nM | 77 nM | 305 nM | 16 nM | 88 nM
13 | CCc1c(F)ccc2cc(O)cc(-c3ncc4c(N(C)CCNC(=O)n5nccn5)nc(OC[C@@]56CCCN5C[C@H](F)C6)nc4c3F)c12 [Example 251, N-(2-((7-(8-ethyl-7-fluoro-3-hydroxynaphthalen-1-yl)-8-fluoro-2-(((2R,7aS)-2-fluorotetrahydro-1H-pyrrolizin-7a(5H)-yl)methoxy)pyrido[4,3-d]pyrimidin-4-yl)(methyl)amino)ethyl)-2H-1,2,3-triazole-2-carboxamide] | 21 nM | 65 nM | 70 nM | 1280 nM | 5440 nM | 66 nM
